Assay type in all cases: biochemical
In one experiment the target is EGFR (Homo sapiens, UniProt P00533). Kind of experiment: ADP-Glo in vitro kinase assay.
A further experiment deals with MET (Homo sapiens, UniProt P08581). Kind of experiment: ADP-Glo in vitro kinase assay. A general note: In ADP-Glo the light output rises with the ADP produced.
The target of another experiment is AKT1 (Homo sapiens, UniProt P31749). The experiment in a line: ADP-Glo in vitro kinase assay; relative activity left at […].
Chain of AKT1 (P31749 whole entry): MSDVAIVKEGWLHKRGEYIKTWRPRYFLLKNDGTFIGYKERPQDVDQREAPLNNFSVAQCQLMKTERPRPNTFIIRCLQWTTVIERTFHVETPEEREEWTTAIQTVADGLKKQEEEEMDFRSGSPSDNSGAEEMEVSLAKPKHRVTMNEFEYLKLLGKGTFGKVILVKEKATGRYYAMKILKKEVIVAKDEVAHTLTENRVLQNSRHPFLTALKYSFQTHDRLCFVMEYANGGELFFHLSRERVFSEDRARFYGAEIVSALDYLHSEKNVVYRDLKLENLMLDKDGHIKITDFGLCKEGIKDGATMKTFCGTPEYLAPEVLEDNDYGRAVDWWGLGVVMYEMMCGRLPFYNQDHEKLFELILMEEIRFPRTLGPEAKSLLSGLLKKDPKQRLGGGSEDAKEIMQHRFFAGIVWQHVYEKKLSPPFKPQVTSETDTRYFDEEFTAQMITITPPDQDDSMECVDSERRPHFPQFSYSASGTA

Chain of MET (P08581 25-307): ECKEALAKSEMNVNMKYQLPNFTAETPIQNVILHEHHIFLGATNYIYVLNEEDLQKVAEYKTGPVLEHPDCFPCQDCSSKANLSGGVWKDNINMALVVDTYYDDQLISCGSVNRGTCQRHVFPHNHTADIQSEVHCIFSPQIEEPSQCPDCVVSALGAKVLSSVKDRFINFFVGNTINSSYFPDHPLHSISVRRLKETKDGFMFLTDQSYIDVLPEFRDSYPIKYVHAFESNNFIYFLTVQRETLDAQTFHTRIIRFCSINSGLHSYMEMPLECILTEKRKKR
Chain of MET (P08581 308-1390): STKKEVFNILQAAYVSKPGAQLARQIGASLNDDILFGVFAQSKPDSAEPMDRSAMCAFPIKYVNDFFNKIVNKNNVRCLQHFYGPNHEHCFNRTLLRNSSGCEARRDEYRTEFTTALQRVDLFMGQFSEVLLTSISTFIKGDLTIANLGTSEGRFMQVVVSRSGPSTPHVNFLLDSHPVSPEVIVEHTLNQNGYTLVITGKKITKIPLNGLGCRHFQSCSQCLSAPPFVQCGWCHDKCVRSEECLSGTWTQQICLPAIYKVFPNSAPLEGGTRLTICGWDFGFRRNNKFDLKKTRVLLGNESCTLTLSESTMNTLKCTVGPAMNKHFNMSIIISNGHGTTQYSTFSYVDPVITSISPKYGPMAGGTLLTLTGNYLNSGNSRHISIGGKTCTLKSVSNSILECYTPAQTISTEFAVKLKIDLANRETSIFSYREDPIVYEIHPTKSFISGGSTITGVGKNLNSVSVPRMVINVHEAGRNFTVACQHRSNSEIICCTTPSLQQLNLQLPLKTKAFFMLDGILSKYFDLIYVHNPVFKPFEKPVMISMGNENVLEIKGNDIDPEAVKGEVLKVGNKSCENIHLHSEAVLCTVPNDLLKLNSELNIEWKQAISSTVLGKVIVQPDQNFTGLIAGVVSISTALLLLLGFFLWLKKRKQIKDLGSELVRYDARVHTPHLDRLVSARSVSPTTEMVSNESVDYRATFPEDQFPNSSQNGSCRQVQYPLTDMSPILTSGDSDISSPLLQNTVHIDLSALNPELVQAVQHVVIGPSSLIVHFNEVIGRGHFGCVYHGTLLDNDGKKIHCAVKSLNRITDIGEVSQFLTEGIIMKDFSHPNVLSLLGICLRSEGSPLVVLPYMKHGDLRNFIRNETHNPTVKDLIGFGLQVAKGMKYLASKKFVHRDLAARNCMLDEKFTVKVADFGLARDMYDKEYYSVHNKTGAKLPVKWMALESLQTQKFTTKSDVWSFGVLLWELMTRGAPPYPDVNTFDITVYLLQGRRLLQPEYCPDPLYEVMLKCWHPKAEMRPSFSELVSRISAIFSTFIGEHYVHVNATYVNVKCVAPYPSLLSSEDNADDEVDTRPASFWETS
Chain of EGFR (P00533 25-1210): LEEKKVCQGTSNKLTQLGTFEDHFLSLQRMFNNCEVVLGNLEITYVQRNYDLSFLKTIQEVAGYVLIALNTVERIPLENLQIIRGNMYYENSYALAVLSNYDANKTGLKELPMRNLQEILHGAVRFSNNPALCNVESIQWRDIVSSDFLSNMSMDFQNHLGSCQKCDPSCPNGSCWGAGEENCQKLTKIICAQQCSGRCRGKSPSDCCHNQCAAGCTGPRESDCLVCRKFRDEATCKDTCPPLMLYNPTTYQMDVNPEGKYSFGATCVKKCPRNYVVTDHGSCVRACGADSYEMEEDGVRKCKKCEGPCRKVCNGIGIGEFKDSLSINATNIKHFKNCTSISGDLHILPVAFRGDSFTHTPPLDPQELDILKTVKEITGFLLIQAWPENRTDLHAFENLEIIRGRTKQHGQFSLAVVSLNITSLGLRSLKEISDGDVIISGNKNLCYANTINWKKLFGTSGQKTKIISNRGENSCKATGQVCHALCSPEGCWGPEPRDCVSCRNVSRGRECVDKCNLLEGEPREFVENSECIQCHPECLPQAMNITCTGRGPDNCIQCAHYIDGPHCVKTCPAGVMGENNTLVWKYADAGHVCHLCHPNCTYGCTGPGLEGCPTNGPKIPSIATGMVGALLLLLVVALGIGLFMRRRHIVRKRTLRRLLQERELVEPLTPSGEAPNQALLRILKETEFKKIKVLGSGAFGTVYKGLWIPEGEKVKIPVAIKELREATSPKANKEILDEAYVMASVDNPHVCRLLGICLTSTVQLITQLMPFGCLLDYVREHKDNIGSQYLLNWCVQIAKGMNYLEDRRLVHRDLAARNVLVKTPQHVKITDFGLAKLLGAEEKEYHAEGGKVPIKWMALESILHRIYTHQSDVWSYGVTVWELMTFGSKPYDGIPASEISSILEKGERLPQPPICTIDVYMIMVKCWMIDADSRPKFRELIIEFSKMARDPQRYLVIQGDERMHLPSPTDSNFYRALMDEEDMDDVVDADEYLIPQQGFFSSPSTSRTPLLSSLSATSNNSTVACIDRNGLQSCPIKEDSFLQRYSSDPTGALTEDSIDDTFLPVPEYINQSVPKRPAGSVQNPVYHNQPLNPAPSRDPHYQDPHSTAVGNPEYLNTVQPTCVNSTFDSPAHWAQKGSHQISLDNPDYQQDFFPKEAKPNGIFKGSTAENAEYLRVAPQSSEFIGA

As for `CC(=O)O[C@H]1CC[C@]2(C)C3=CC[C@]4(C)[C@H]5[C@H](O)C[C@@H](C(C)C)[C@]5(C)CC[C@@]4(C)[C@@H]3[C@@H](O)C[C@H]2C1(C)C` [ARu-B, 3-O-acetylrubiarbonol B], the IC50 (as a rule, the concentration that inhibits the measured activity by half) was 3 µM against EGFR and 1700 nM at MET. Further, the activity at 8 µM on AKT1 came out at 58%.
Take `CC(C)[C@@H]1C[C@@H](O)[C@H]2[C@@]1(C)CC[C@@]1(C)[C@H]3C(=CC[C@]21C)[C@@]1(C)CC[C@H](O)C(C)(C)[C@@H]1C[C@@H]3O` [Ru-B, rubiarbonol B]: the IC50 worked out at 7.6 µM against EGFR and 4200 nM against MET. This molecule came in with an activity at 8 µM at AKT1 of 67.1%.
